According to patent US20060046976A1, “Method for increasing the bone mineral density and bone micro-architecture or connectivity of a mammal using N-acylated glucosamines” (priority 2004, published 2006):

Tested on: SCW-arthritis rats
Test: Two-dimensional subchondral bone analysis (structure, connectivity/strut analysis, plate thickness) of proximal tibia, SCW-arthritis rats
Type: in vivo, Lewis type rats
Conditions: for 2D-Tb.N Mean ± SEM / 2D-Tb.Th % loss / 2D-Tb.Th Mean ± SEM / End Points % loss / End Points Mean ± SEM / Multiple points % loss / Multiple points Mean ± SEM / Node-node struts % loss / Node-node struts Mean ± SEM / Total Strut length % loss / Total Strut length Mean ± SEM / 2D-BV/TV % loss / 2D-BV/TV Mean ± SEM / 2D-Tb.N % loss: SCW + 200 mg

CCCC(=O)N[C@H]1C(O)O[C@H](CO)[C@@H](O)[C@@H]1O (stereo partly drawn) [GlcNBu, N-butyryl-D-glucosamine]
2D-Tb.N Mean ± SEM (Anterior/lateral): 6.0 ± 0.7 /mm | 2D-Tb.Th % loss (Anterior/lateral): 30% | 2D-Tb.Th Mean ± SEM (Anterior/lateral): 39.7 ± 2.9 um | End Points % loss (Anterior/lateral): −120% | End Points Mean ± SEM (Anterior/lateral): 34.1 ± 4.1 1/mm2 | Multiple points % loss (Anterior/lateral): 37% | Multiple points Mean ± SEM (Anterior/lateral): 10.3 ± 2.7 1/mm2 | Node-node struts % loss (Anterior/lateral): 64% | Node-node struts Mean ± SEM (Anterior/lateral): 1.2 ± 0.4 mm/mm2 | Total Strut length % loss (Anterior/lateral): 28% | Total Strut length Mean ± SEM (Anterior/lateral): 5.4 ± 0.7 mm/mm2 | 2D-BV/TV % loss (Anterior/medial): 31% | 2D-BV/TV Mean ± SEM (Anterior/medial): 27.8 ± 2.7% | 2D-Tb.N % loss (Anterior/medial): 10% | 2D-Tb.N Mean ± SEM (Anterior/medial): 5.7 ± 0.6 /mm | 2D-Tb.Th % loss (Anterior/medial): 28% | 2D-Tb.Th Mean ± SEM (Anterior/medial): 49.5 ± 4.3 um | End Points % loss (Anterior/medial): −99% | End Points Mean ± SEM (Anterior/medial): 26.7 ± 5.7 1/mm2 | Multiple points % loss (Anterior/medial): 32% | Multiple points Mean ± SEM (Anterior/medial): 10.7 ± 1.7 1/mm2 | Node-node struts % loss (Anterior/medial): 45% | Node-node struts Mean ± SEM (Anterior/medial): 1.3 ± 0.3 mm/mm2 | Total Strut length % loss (Anterior/medial): 15% | Total Strut length Mean ± SEM (Anterior/medial): 5.1 ± 0.5 mm/mm2 | 2D-BV/TV % loss (Middle section/lateral): 15% | 2D-BV/TV Mean ± SEM (Middle section/lateral): 24.1 ± 2.1% | 2D-Tb.N % loss (Middle section/lateral): 0% | 2D-Tb.N Mean ± SEM (Middle section/lateral): 4.7 ± 0.3 /mm | 2D-Tb.Th % loss (Middle section/lateral): 16% | 2D-Tb.Th Mean ± SEM (Middle section/lateral): 51.3 ± 2.8 um | End Points % loss (Middle section/lateral): −92% | End Points Mean ± SEM (Middle section/lateral): 19.8 ± 1.7 1/mm2 | Multiple points % loss (Middle section/lateral): 2% | Multiple points Mean ± SEM (Middle section/lateral): 9.5 ± 1.9 1/mm2 | Node-node struts % loss (Middle section/lateral): 15% | Node-node struts Mean ± SEM (Middle section/lateral): 0.9 ± 0.2 mm/mm2 | Total Strut length % loss (Middle section/lateral): 9% | Total Strut length Mean ± SEM (Middle section/lateral): 4.2 ± 0.2 mm/mm2 | 2D-BV/TV % loss (Middle section/medial): 17% | 2D-BV/TV Mean ± SEM (Middle section/medial): 35.1 ± 4.1% | 2D-Tb.N % loss (Middle section/medial): −9% | 2D-Tb.N Mean ± SEM (Middle section/medial): 5.1 ± 0.2 /mm | 2D-Tb.Th % loss (Middle section/medial): 24% | 2D-Tb.Th Mean ± SEM (Middle section/medial): 68.5 ± 6.3 um | End Points % loss (Middle section/medial): −145% | End Points Mean ± SEM (Middle section/medial): 12.2 ± 2.1 1/mm2 | Multiple points % loss (Middle section/medial): −11% | Multiple points Mean ± SEM (Middle section/medial): 12.6 ± 1.8 1/mm2 | Node-node struts % loss (Middle section/medial): 4% | Node-node struts Mean ± SEM (Middle section/medial): 2.0 ± 0.3 mm/mm2 | Total Strut length % loss (Middle section/medial): −2% | Total Strut length Mean ± SEM (Middle section/medial): 4.9 ± 0.3 mm/mm2 | 2D-BV/TV % loss (Posterior/lateral): 27% | 2D-BV/TV Mean ± SEM (Posterior/lateral): 23.2 ± 1.0% | 2D-Tb.N % loss (Posterior/lateral): 13% | 2D-Tb.N Mean ± SEM (Posterior/lateral): 4.5 ± 0.2 /mm | 2D-Tb.Th % loss (Posterior/lateral): 22% | 2D-Tb.Th Mean ± SEM (Posterior/lateral): 49.8 ± 1.7 um | End Points % loss (Posterior/lateral): −114% | End Points Mean ± SEM (Posterior/lateral): 21.4 ± 1.7 1/mm2 | Multiple points % loss (Posterior/lateral): 59% | Multiple points Mean ± SEM (Posterior/lateral): 7.1 ± 0.7 1/mm2 | Node-node struts % loss (Posterior/lateral): 46% | Node-node struts Mean ± SEM (Posterior/lateral): 0.7 ± 0.1 mm/mm2 | Total Strut length % loss (Posterior/lateral): 16% | Total Strut length Mean ± SEM (Posterior/lateral): 4.0 ± 0.2 mm/mm2 | 2D-BV/TV % loss (Posterior/medial): 21% | 2D-BV/TV Mean ± SEM (Posterior/medial): 35.9 ± 2.2% | 2D-Tb.N % loss (Posterior/medial): 5% | 2D-Tb.N Mean ± SEM (Posterior/medial): 6.1 ± 0.2 /mm | 2D-Tb.Th % loss (Posterior/medial): 21% | 2D-Tb.Th Mean ± SEM (Posterior/medial): 61.0 ± 3.6 um | End Points % loss (Posterior/medial): −233% | End Points Mean ± SEM (Posterior/medial): 17.1 ± 1.8 1/mm2 | Multiple points % loss (Posterior/medial): 29% | Multiple points Mean ± SEM (Posterior/medial): 13.9 ± 1.8 1/mm2 | Node-node struts % loss (Posterior/medial): 23% | Node-node struts Mean ± SEM (Posterior/medial): 2.1 ± 0.3 mm/mm2 | Total Strut length % loss (Posterior/medial): 12% | Total Strut length Mean ± SEM (Posterior/medial): 5.6 ± 0.3 mm/mm2 | Subchondral Plate Thickness (SCW + GlcNBu High, lateral epiphysis of proximal tibia): 0.11 ± 0.04 mm | Subchondral Plate Thickness (SCW + GlcNBu High, medial epiphysis of proximal tibia): 0.07 ± 0.04 mm | Subchondral Plate Thickness (SCW + GlcNBu Low, lateral epiphysis of proximal tibia): 0.10 ± 0.04 mm | Subchondral Plate Thickness (SCW + GlcNBu Low, medial epiphysis of proximal tibia): 0.07 ± 0.03 mm | decrease of Subchondral Plate Thickness in arthritis (SCW-arthritis rats, GlcNBu treatment, especially high dose): minimized by GlcNBu treatment | bone connectivity (SCW-arthritis rats, low and high dose GlcNBu): dose-dependent increase in bone connectivity | length of node-to-node struts, untreated arthritis-induced group to high dose group (medial side of the proximal epiphysis, high dose, p=0.034): significant increase
